Test results published in PMC9913425, “Pentacyclic Triterpenoids-Based Ionic Compounds: Synthesis, Study of Structure–Antitumor Activity Relationship, Effects on Mitochondria and Activation of Signaling Pathways of Proliferation, Genome Reparation and Early Apoptosis” (Cancers, 2023).
Structures can show the parent of a compound that is named as a salt.

Tests used:
[1] = tested on: HL60; experiment: In vitro cytotoxicity, IC50 by flow cytometry (Guava ViaCount); type: cell-based, human
Protocol: (§1) Human cancer cell line HeLa, HL60, A2780 was obtained from the HPA Culture Collections (Salisbury, UK). Cells (Jurkat, K562, U937, Hek293, Fibroblasts) were purchased from Russian Cell Culture Collection (Institute of Cytology of the Russian Academy of Sciences, […], Russia) and cultured according to standard protocols and sterile technique. […] Cells were maintained in RPMI 1640 (Jurkat, K562, U937, HL60) (Gibco, Billings, MT, USA) supplemented with […], 10% FBS (Sigma) and 100 units/mL penicillin–streptomycin (Sigma). All types of cells were grown in an atmosphere of 5% CO2 at 37 °C. The cells were subcultured at 2–3 days intervals. Cells were then seeded in 24-well plates at 5 × 10^4 cells per well and incubated overnight. Jurkat, K562, U937, HL60 cells were subcultured at 2-day intervals with a seeding density of 1 × 10^5 cells per 24-well plates in RPMI with 10% FBS.
(§2) The antitumor activity of the synthesized ionic compounds was initially assessed in vitro on Jurkat, K562, U937, HL60, HEK293, A2780 cell lines, including the determination of IC50 by flow cytometry involving Guava ViaCount (Millipore) reagent kits.

[2] = tested on: A2780; experiment: as above; type: cell-based, human
Protocol: as §1, §2

[3] = tested on: K562; experiment: as above; type: cell-based
Protocol: as §1, §2

[4] = tested on: U937; experiment: as above; type: cell-based
Protocol: as §1, §2

[5] = tested on: HEK293; experiment: as above; type: cell-based; settings: conditionally normal
Protocol: as §1, §2

[6] = tested on: Jurkat; experiment: as above; type: cell-based; settings: Jurkat cells
Protocol: as §1, §2

[7] = tested on: Jurkat cells; experiment: Apoptosis/necrosis induction (Annexin V Alexa Fluor488, 7AAD staining); type: cell-based; settings: compound at IC50 concentration, incubation 2 h
Source text: Multiparametric evaluation of marker molecules, along with the detection of damage to the mitochondrial membrane, makes it possible to clearly determine the type of cell death. The method of cell staining with three different dyes (Annexin V Alexa Fluor488, 7AAD and MitoSense Red) provides simultaneous specification of various aspects of the state of the cell membrane, the state of DNA and the viability of mitochondria; together, it is a reliable sign of intrinsic and mitochondrial apoptosis pathway. Normal cells with intact mitochondrial membranes have high MitoSense Red fluorescence, while cells with decoupled oxidation and phosphorylation have much lower fluorescence. […]
Figure 1 The ratio of the level of mito-damage and the level of apoptosis in Jurkat cells of ionic compounds based on ursolic, oleanolic and betulinic acids.

[8] = tested on: mitochondria of Jurkat tumor cells; experiment: Mitochondrial damage (MitoSense Red staining); type: cell-based; settings: compound at IC50 concentration, incubation 2 h
[9] = tested on: Chk1; experiment: Luminex xMAP DNA Damage/Genotoxicity panel, phosphorylated Chk1; type: cell-based; settings: Jurkat cells; 12a 0.006 µM, 13d 0.004 µM per 100,000 cells; 6 and 12 h
Source text: [Worded in the source for another target; used here, by the source, with some conditions changed.] (§3) The determination of proteins in a cell by Luminex xMAP technology is characterized by the presence of multiplex multiparametric analysis with the simultaneous use of a multiplex of antibodies with a fluorescent label and magnetic particles, thereby resulting in an increase in the sensitivity of the technique and expansion of the dynamic range, as well as an increase in detection accuracy. Luminex XMAP technology provides a simultaneous analysis of a sufficient number of different proteins in various types of biological fluids (plasma, serum, cerebrospinal fluid, follicular fluid, tissue lysate, etc.) and in cell supernatants. Consequently, multiplexing saves time/costs and ensures the same conditions for the measurements, which is essential for significance and statistical processing.
(§4) Magnetic microspheres (stained inside with two fluorescent dyes) in combination with monoclonal antibodies against the analyzed analytes (the main intracellular kinases in this case) are incubated with the samples and standards; then, the samples/standards are incubated with biotinylated monoclonal antibodies against the analyzed analytes and, finally, with a solution of streptavidin–phycoerythrin. The Luminex technology identifies the different proteins present in each well and converts the mean fluorescence intensity (MFI) of each measured cytokine to pg/mL using software and standard curves. This approach is successfully applied in fundamental and clinical research. In this work, we analyzed various protein analytes that make up the phosphorylated and non-phosphorylated fractions of the main kinases in the signaling pathways: CREB, JNK, NFkB, p38, ERK1/2, Akt, p70S6K, STAT3, STAT5 proteins in six samples of lysates of Jurkat tumor cells by Luminex technology (MILLIPLEX® MAP 9-Plex Multi-Pathway 9-plex Magnetic Bead Kit).

[10] = tested on: Chk2; experiment: Luminex xMAP DNA Damage/Genotoxicity panel, phosphorylated Chk2; type: cell-based; settings: Jurkat cells; 12a 0.006 µM, 13d 0.004 µM per 100,000 cells; 6 and 12 h
Source text: [Worded in the source for another target; used here, by the source, with some conditions changed.] as §3, §4

[11] = Homo sapiens, HL-60, HL60 cells
[12] = Homo sapiens, A2780, A2780 cells
[13] = Homo sapiens, U-937, U937 cells
[14] = Homo sapiens, HEK293, HEK293 cells

Compound | melting point [°C] | IC50 [1, 11] [nM] | IC50 [2, 12] [nM] | IC50 ([3]; Homo sapiens, K562, K562 cells) [nM] | IC50 [4, 13] [nM] | IC50 [5, 14] [nM] | IC50 ([6]; Homo sapiens, Jurkat) [nM] | Apoptosis (%) Early [7] [%] | Apoptosis (%) Late [7] [%] | Apoptosis (%) Necrosis [7] [%] | Mito-Damage (%) [8] [%] | percentage of cells in the apoptotic state [7] [%] | IC50 ([1]; HL60 cells) [nM] | IC50 ([2]; A2780 cells) [nM] | IC50 ([3]; K562 cells) [nM] | IC50 ([4]; U937 cells) [nM] | IC50 ([5]; HEK293 cells) [nM] | IC50 [6] [nM] | content of phosphorylated checkpoint kinase Chk1 [9] | content of phosphorylated checkpoint kinase Chk2 [10]
C[n+]1ccn(CCCCOC(=O)[C@]23CCC(C)(C)CC2C2=CCC4[C@@]5(C)CC[C@H](O)C(C)(C)C5CC[C@@]4(C)[C@]2(C)CC3)c1 (stereo partly drawn) (as salt: bromide) [9b, 1-(4-{[(3β)-3-Hydroxyolean-12-en-28-oyl]oxy}butyl)-3-methylimidazolium bromide] | 148 to 150 |  |  |  |  |  |  |  |  |  |  |  |  |  |  |  |  |  |  | 
CC(=O)O[C@H]1CC[C@@]2(C)C(CC[C@]3(C)C2CC=C2C4CC(C)(C)CC[C@]4(C(=O)OCCCCCCn4cc[n+](C)c4)CC[C@]23C)C1(C)C (stereo partly drawn) (as salt: bromide) [9d, 1-(6-{[(3β)-3-Acetyloxyolean-12-en-28-oyl]oxy}hexyl)-3-methylimidazolium bromide] | 151 to 153 |  |  |  |  |  |  |  |  |  |  |  |  |  |  |  |  |  |  | 
CC1(C)CC[C@]2(C(=O)OCCCCCC[N+]3(C)CCCCC3)CC[C@]3(C)C(=CCC4[C@@]5(C)CC[C@H](O)C(C)(C)C5CC[C@]43C)C2C1 (stereo partly drawn) [12b, 1-(6-{[(3β)-3-Hydroxyolean-12-en-28-oyl]oxy}hexyl)-1-methylpiperidinium bromide] |  | 24 ± 2 | 34 ± 3 | 21 ± 1 | 19 ± 1 | 76 ± 7 | 9 ± 1 | 3.21 | 18.13 | 1.9 | 23.49 |  |  |  |  |  |  |  |  | 
CC1(C)CC[C@]2(C(=O)OCCCCCC[N+]3(C)CCCC3)CC[C@]3(C)C(=CCC4[C@@]5(C)CC[C@H](O)C(C)(C)C5CC[C@]43C)C2C1 (stereo partly drawn) [12c, 1-(6-{[(3β)-3-Hydroxyolean-12-en-28-oyl]oxy}hexyl)-1-methylpyrrolidinium bromide] |  | 27 ± 2 | 39 ± 4 | 24 ± 1 | 21 ± 1 | 81 ± 8 | 11 ± 1 | 0.7 | 33.66 | 0.99 | 74.26 | 35 |  |  |  |  |  |  |  | 
CC1(C)CC[C@]2(C(=O)OCCCCCC[N+]3(C)CCOCC3)CC[C@]3(C)C(=CCC4[C@@]5(C)CC[C@H](O)C(C)(C)C5CC[C@]43C)C2C1 (stereo partly drawn) [12d, 4-(6-{[(3β)-3-Hydroxyolean-12-en-28-oyl]oxy}hexyl)-4-methylmorpholinium bromide] |  | 17 ± 1 | 41 ± 4 | 69 ± 3 | 59 ± 3 | 86 ± 8 | 22 ± 2 | 0.0 | 36.14 | 22.63 | 62.11 |  |  |  |  |  |  |  |  | 
CC[N+](CC)(CC)CCCCCCOC(=O)[C@]12CCC(C)(C)CC1C1=CCC3[C@@]4(C)CC[C@H](O)C(C)(C)C4CC[C@@]3(C)[C@]1(C)CC2 (stereo partly drawn) [12e, N,N,N-Triethyl-N-(6-{[(3β)-3-hydroxyolean-12-en-28-oyl]oxy}hexyl)-aminium bromide] |  | 3 ± 1 | 16 ± 2 | 13 ± 1 | 10 ± 1 | 34 ± 3 | 7 ± 1 | 0.76 | 76.0 | 7.19 | 97.3 |  |  |  |  |  |  |  |  | 
CC1(C)CC[C@]2(C(=O)OCCCCCC[N+](C)(C)CCO)CC[C@]3(C)C(=CCC4[C@@]5(C)CC[C@H](O)C(C)(C)C5CC[C@]43C)C2C1 (stereo partly drawn) [12f, N-(2-Hydroxyethyl)-N-(6-{[(3β)-3-hydroxyolean-12-en-28-oyl]oxy}hexyl)-N,N-dimethylaminium bromide] |  | 11 ± 1 | 15 ± 1 | 49 ± 2 | 42 ± 2 | 26 ± 2 | 17 ± 1 | 0.0 | 30.87 | 54.23 | 86.98 | 85.10 |  |  |  |  |  |  |  | 
Cn1cc[n+](CCCCCCOC(=O)C23CCC(C)(C)CC2C2=CCC4C5(C)CCC(O)C(C)(C)C5CCC4(C)C2(C)CC3)c1.[F][Sb-]([F])([F])([F])([F])[F] (stereo not drawn) [13b, 1-(6-{[(3β)-3-Hydroxyolean-12-en-28-oyl]oxy}hexyl)-3-methylimidazolium Hexafluoroantimonate] |  |  |  |  |  |  |  | 2.35 | 17.49 | 4.68 | 35.72 |  | 3 ± 1 | 21 ± 2 | 12 ± 1 | 10 ± 1 | 39 ± 3 | 9 ± 1 |  | 
Cn1cc[n+](CCCCCCOC(=O)[C@]23CCC(C)(C)C[C@H]2C2=CC[C@@H]4[C@@]5(C)CC[C@H](O)C(C)(C)[C@@H]5CC[C@@]4(C)[C@]2(C)CC3)c1.F[P-](F)(F)(F)(F)F [13c, 1-(6-{[(3β)-3-Hydroxyolean-12-en-28-oyl]oxy}hexyl)-3-methylimidazolium Hexafluorophosphate] |  |  |  |  |  |  |  | 3.62 | 5.20 | 1.78 | 8.32 |  | 3 ± 1 | 14 ± 1 | 7 ± 1 | 5 ± 1 | 32 ± 3 | 8 ± 1 |  | 
C[n+]1ccn(CCCCCCOC(=O)[C@]23CCC(C)(C)CC2C2=CCC4[C@@]5(C)CC[C@H](O)C(C)(C)C5CC[C@@]4(C)[C@]2(C)CC3)c1.O=S(=O)([O-])c1ccccc1 (stereo partly drawn) [13e, 1-(6-{[(3β)-3-Hydroxyolean-12-en-28-oyl]oxy}hexyl)-3-methylimidazolium Benzenesulfonate] |  |  |  |  |  |  |  | 6.26 | 3.12 | 1.52 | 7.71 |  | 4 ± 1 | 24 ± 2 | 17 ± 1 | 14 ± 1 | 46 ± 4 | 11 ± 1 |  | 
C=C(C)[C@@H]1CC[C@]2(C(=O)[O-])CC[C@]3(C)[C@H](CC[C@@H]4[C@@]5(C)CC[C@H](O)C(C)(C)[C@@H]5CC[C@]43C)[C@@H]12.CCn1cc[n+](C)c1 [17a, 1-Ethyl-3-methylimidazolium (3β)-3-hydroxyolup-20(29)-en28-oylate] |  |  |  |  |  |  |  | 2.91 | 1.38 | 3.30 | 8.84 |  | 17 ± 2 | 81 ± 8 | 41 ± 2 | 34 ± 2 | 182 ± 17 | 18 ± 1 |  | 
N#CC(C#N)=NNc1cccc(Cl)c1 [CCCP] |  |  |  |  |  |  |  |  |  |  |  |  |  |  |  |  |  |  | significantly decreases | significantly decreases
CC(=O)O[C@H]1CC[C@@]2(C)C(CC[C@]3(C)C2CC=C2C4CC(C)(C)CC[C@]4(C(=O)OCCCCCCOC(=O)c4nccn4C)CC[C@]23C)C1(C)C (stereo partly drawn) [compound 3, 6-{[(1-Methyl-1H-imidazol-2-yl)carbonyl]oxy}hexyl (3β)-3-(acetyloxy)olean-12-en-28-oate] | 134 to 136 | > 4000 | > 4000 | > 4000 | > 4000 | > 4000 | > 4000 |  |  |  |  |  |  |  |  |  |  |  |  | 
